Test results reported in patent US11116746B2, “Use of rice bran oil distillate extract for prevention and mitigation of the effects of radiation” (Tocol Pharmaceuticals, LLC, priority 2015, dated 2021).

Legend:
HaCaT cells [1] = experiment: In vitro scratch assay (keratinocyte migration) after 8 Gy IR; assay type: cell-based, human; details: 5 μM given 4 h after IR exposure
Description: Human immortalized keratinocytes (HaCaT cells) were plated in 12 well culture plates and irradiated with 8 Gy or sham irradiated 24 h after plating. The cells were given either vehicle (DMSO, 0.1% v/v) or 5 μM of DT3 or 5 μM of TRFRB 4 hours following radiation. Culture media were replaced again at 36 h following radiation. At the 72 h time point, a scratch was made using a sterile micropipette tip in each well. This created an open area into which the keratinocytes migrated. Two areas of the scratch margins were imaged daily until scratches were closed. The area of the scratch remaining was measured on the images at five points per field, with two fixed fields averaged using Cell Analyzer 1.0 (BWTech, Iowa City, Iowa). Measurements were stopped when cells no longer made positive progress towards the scratch origin. See Ross et al., Exp Dermatol 2011, 20, 58-63.
This protection in the increased survival fraction was not statistically significant compared to 8 Gy IR alone group (FIG. 7). An in vitro scratch assay was utilized to evaluate the protective efficacy of TRFRB for keratinocyte migration function when the cells were treated with TRFRB after IR exposure.

HaCaT cells [2] = experiment: Mitochondrial bioenergetics (mitochondrial uncoupling) in irradiated keratinocytes; assay type: cell-based, human; details: 5 μM pretreatment 16 h prior to 8 Gy IR; 48 h following IR; normalized to sham irradiated control
Description: In order to determine the radioprotective effects of TRFRB, human immortalized keratinocytes (HaCaT cells) were plated in 96 well Seahorse plates. The next day they were treated with either vehicle (DMSO, 0.1% v/v) or 5 μM of DT3 or 5 μM of TRFRB overnight. The Seahorse plates were either sham irradiated or irradiated with 8 Gy of γ-irradiation. Both plates were sequentially run in the XF96 extracellular analyzer as described above.
Secondly we utilized an immortalized human skin keratinocyte line (HaCaT cells) to evaluate the radioprotective effects of TRFRB. HaCaT cells were pretreated with DMSO vehicle or 5 μM of DT3 or TRFRB for 16 h prior to 8 Gy IR. Then the cellular bioenergetics and mitochondrial respiration in these cells were assayed at 48 h following IR exposure as described with H9c2 cells. The percent mitochondrial uncoupling is defined and calculated by determining the increase in the ratio of basal respiration to maximum respiration (OCR following FCCP treatment) and the data was normalized to the sham irradiated control group.

[3] = tested on: H9c2 rat heart cardiomyocytes; experiment: Cell morphology of cardiomyocytes after H2O2 damage; assay type: cell-based; details: 5 μM pretreatment overnight; 100 and 200 μM H2O2 for 4 h
Description: H9c2 rat heart cardiomyocytes were treated with either vehicle control (DMSO, 0.1% v/v), 5 μM delta-tocotrienol or 5 μM TRFRB overnight. Cells were then exposed to 100 or 200 μM H2O2 for 4 h. Morphological changes were recorded under an inverted microscope. Pictures were taken at 10× magnification. Scale bar represents 400 μm.
We then investigated whether TRFRB can protect the various cells types from different tissue origins against H2O2 or IR induced oxidative damage.

[4] = tested on: H9c2 rat heart cardiomyocytes; experiment: Mitochondrial bioenergetics (oxygen consumption rate, XF96 analyzer) in H9c2 cells with or without H2O2; assay type: cell-based
Description: Oxygen consumption rate (OCR) was measured at 37° C. using an XF96 extracellular analyzer (Seahorse Bioscience) as previously described Pathak et al., Antioxid Redox Signal 2014, 20, 1436-1446. H9c2 rat heart cardiomyocytes cells were plated in 96 well Seahorse plates. The next day they were treated with either vehicle (DMSO, 0.1% v/v) or 5 μM of DT3 or 5 μM of TRFRB overnight. The cells were then treated with 50 or 100 μM H2O2 for 4 h at 37° C. The media in the wells were changed to unbuffered DMEM supplemented with 4 mM […] and incubated in a non-CO2 incubator for 1 h at 37° C. Three baseline measurements were acquired before injection of mitochondrial inhibitors or uncouplers. Readings were taken after sequential addition of oligomycin (10 μM), carbonylcyanide 4-(trifluoromethoxy)phenylhydrazone (FCCP, 10 μM) and rotenone/antimycin A (10 μM). Oxygen consumption rates were calculated by the Seahorse XF-96 software and represent an average of 3 measurements on 8 different wells. The rate of measured oxygen consumption was reported as pmol O2 consumed per minute per 10,000 cells.
Therefore, the next experiment assessed the effects of TRFRB and pure DT3 on cellular bioenergetics and mitochondrial respiration in the absence of any cellular stress. Intracellular mitochondrial function was examined by sequentially adding inhibitors of oxidative phosphorylation. Initially we took 3 measurements to determine the “basal respiration” of the cells. By injecting an inhibitor of mitochondrial ATP synthase (oligomycin), a decrease in oxygen consumption rate (OCR) was obtained and this decrease in OCR is termed as “ATP linked respiration”. In order to determine the maximal respiration potential of the cells, FCCP, an uncoupler, was used. Immediately following FCCP injection, oxygen consumption increased and cells reached to their maximum respiration. Mitochondrial “reserve respiratory capacity” was calculated by subtracting […]. Overnight (16 h) treatment of both DT3 and TRFRB increased basal oxygen consumption rate (OCR) as well as maximum OCR in H9c2 rat heart cardiomyocytes (FIG. 4A). […] 100 μM H2O2 treatment for 4 h completely halted the cellular respiration (FIGS. 4B and C).

[5] = single injection; cited from earlier work
[6] = tested on: TBHP induced lipid peroxidation in Wistar rat liver microsomes; experiment: TBARS assay: inhibition of TBHP induced microsomal lipid peroxidation; assay type: biochemical; details: microsomes pretreated 1 h, then TBHP 30 min; TRFRB expressed in μM of tocotrienols; read-out: IC50, concentration that reduced the amount of lipid peroxidation approximately 50%
Description: The antioxidant activity of TRFRB was assessed measuring the ability to prevent microsomal lipid peroxidation. For this a TBARS assay was performed using a modified version of the original method described by Buege and Aust, Microsomal lipid peroxidation. Methods Enzymol 1978, 52, 302-310. Briefly, rat liver microsomes (BD Bioscience) were suspended in PBS in glass tubes at final concentration of 1 mg/mL. To this, increasing concentrations of TRFRB dissolved in DMSO were added. DMSO alone was used as control. The final DMSO percentage was kept under 0.1%. Microsomes were subsequently incubated with the test compounds at 37° C. for one hour in a shaking water bath (100 rpm). After one hour, freshly made tert-Butyl hydroperoxide (TBHP) solution was added to microsomes at a final concentration of 200 μM and incubation was continued for another 30 mins. The reaction was terminated by addition of 20% trichloroacetic acid and tubes were placed on ice for 15 mins. Equal volume of 0.67% thiobarbituric acid in 0.05N NaOH was added and the final mixture was heated at 95° C. for 45 mins to allow the color to develop. Finally, the tubes were cooled on ice and centrifuged at 1000 rpm for 20 mins and the supernatant was read at 532 nm. The percent TBARS was calculated using a standard curve obtained using malondialdehyde (MDA). […]

| Compound | migration rates (HaCaT cells [1]) | degree of mitochondrial uncoupling (HaCaT cells [2]) | protection of cell morphology against H2O2 treatment [3] | mitochondrial respiration following H2O2 injury ([4]; 5 μM for 16 h prior to 50 or 100 μM H2O2 for 4 h) | basal oxygen consumption rate (OCR) ([4]; 5 μM overnight (16 h), no cellular stress) | maximum OCR ([4]; 5 μM overnight (16 h), no cellular stress, after FCCP) | reserve respiratory capacity ([4]; calculated from maximum and basal OCR) | dose reduction factor (DRF) as a radiomitigator [5] | dose reduction factor (DRF) as a radioprotectant [5] | IC50 [6] [µM] |
| --- | --- | --- | --- | --- | --- | --- | --- | --- | --- | --- |
| CC(C)=CCC/C(C)=C/CC/C(C)=C/CC[C@]1(C)CCc2cc(O)cc(C)c2O1 [DT3, δ-tocotrienol] | partially restored | this increase was reversed | significantly protected the morphology | complete protection and restored the mitochondrial respiration | increased | increased | an increase in reserve respiratory capacity | 1.1 | 1.27 | – |
| CC(C)=CCC/C(C)=C/CC/C(C)=C/CC[C@]1(C)CCc2cc(O)c(C)c(C)c2O1 [GT3, γ-tocotrienol] | – | – | – | – | – | – | – | – | 1.29 | 7 |
